From BindingDB's records for doi:10.1016/s0960-894x(02)00382-7 (Novartis Pharma, 2002) come the findings set out here.

Each structure is given as a SMILES string.

The target in this experiment is Substance-P receptor (Bos taurus). The experiment can be described thus: inhibition of [3H]Sar-SP binding to Tachykinin receptor 1 of bovine retina membranes.
For `CN(C(=O)c1cc(C(F)(F)F)cc(C(F)(F)F)c1)c1cc(C(=O)N[C@@H]2CCCCNC2=O)ccc1-c1ccc(Cl)cc1`, the IC50 – broadly, the midpoint of a concentration-inhibition curve – is 2.7 nM.
In turn, `COc1cc(C(=O)N(C)c2cc(C(=O)N[C@@H]3CCCCNC3=O)ccc2-c2ccc(Cl)cc2)cc(OC)c1OC` gave an IC50 of 13 nM.
Then `CN(C(=O)c1cc(C(F)(F)F)cc(C(F)(F)F)c1)c1cc(C(=O)N[C@@H]2CCCCNC2=O)ccc1-c1ccc(F)cc1`, with 1 nM; and `Cc1ccc(-c2ccc(C(=O)N[C@@H]3CCCCNC3=O)cc2N(C)C(=O)c2cc(C(F)(F)F)cc(C(F)(F)F)c2)cc1`, with 6 nM.
Consider `CN(C(=O)c1cc(C(F)(F)F)cc(C(F)(F)F)c1)c1cc(C(=O)N[C@@H]2CCCCNC2=O)ccc1-c1ccc(Cl)c(Cl)c1`, for which the concentration for half-maximal inhibition (IC50) is 0.8 nM.
The value for `CN(C)CCCNC(=O)c1ccc(-c2ccc(Cl)cc2)c(N(C)C(=O)c2cc(C(F)(F)F)cc(C(F)(F)F)c2)c1` [2-[(3,5-Bis-trifluoromethyl-benzoyl)-methyl-amino]-4'-chloro-biphenyl-4-carboxylic acid (3-dimethylamino-propyl)-amide] was 1 nM.
Consider `CN(C)C(=O)c1ccc(-c2ccc(Cl)cc2)c(N(C)C(=O)c2cc(C(F)(F)F)cc(C(F)(F)F)c2)c1` [2-[(3,5-Bis-trifluoromethyl-benzoyl)-methyl-amino]-4'-chloro-biphenyl-4-carboxylic acid dimethylamide], for which the IC50 was 4 nM. This IC50 is about 4-fold higher than that of the compound before.
The value for `CN(C(=O)c1cc(C(F)(F)F)cc(C(F)(F)F)c1)c1cc(C(=O)NC2CCCCC2)ccc1-c1ccc(F)cc1` [2-[(3,5-Bis-trifluoromethyl-benzoyl)-methyl-amino]-4'-fluoro-biphenyl-4-carboxylic acid cyclohexylamide] was 34 nM.
The value for `COc1cc(C(=O)Nc2cc(C(=O)NC3CCCCNC3=O)ccc2-c2ccc(Cl)cc2)cc(OC)c1OC` (centres undefined) [4'-Chloro-2-(3,4,5-trimethoxy-benzoylamino)-biphenyl-4-carboxylic acid (2-oxo-azepan-3-yl)-amide] was 0.7 nM.
